Measured values published in US12668600B2 (Kumquat Biosciences Inc., priority 2023, dated 2026).

Assays:
Format in all cases: biochemical
KRAS G12S = target: T1, KRAS G12S (Homo sapiens, UniProt P01116, G12S); assay: HTRF KRAS-SOS1 interaction assay, KRAS G12S; details: binned ≤2 μM / >2 μM, read-out: Inhibition of KRAS G12S (IC50)
T1 construct: made in house; host or cells: E. coli, e.g. BL21 (DE3)
In short: (§1)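 GST-KRAS + anti-GST-Eu; His-hSOS1 + anti-6His-XL665; cpd in DMSO, duplicate, 10–0.01 μM; ~10 min incubation; HTRF ex 337/em 620, 665 nm; IC50 fitted on 665/620 ratio.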

KRAS G12D = target: T2, KRAS G12D (Homo sapiens, UniProt P01116, G12D); assay: HTRF KRAS-SOS1 interaction assay, KRAS G12D; details: binned ≤2 μM / >2 μM, read-out: Inhibition of KRAS G12D (IC50)
T2 construct: made in house; host or cells: E. coli, e.g. BL21 (DE3)
T2 sequence (P01116 1-188 isoform P01116-2 G12D): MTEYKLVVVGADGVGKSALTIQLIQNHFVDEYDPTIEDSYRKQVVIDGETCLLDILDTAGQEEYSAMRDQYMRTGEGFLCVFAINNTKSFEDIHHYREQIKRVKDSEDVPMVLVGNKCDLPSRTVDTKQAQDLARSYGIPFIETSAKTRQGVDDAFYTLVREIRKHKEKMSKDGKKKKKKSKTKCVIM
In short: as §1

KRAS G12V = target: T3, KRAS G12V (Homo sapiens, UniProt P01116, G12V); assay: HTRF KRAS-SOS1 interaction assay, KRAS G12V; details: binned ≤2 μM / >2 μM, read-out: Inhibition of KRAS G12V (IC50)
T3 construct: made in house; host or cells: E. coli, e.g. BL21 (DE3)
T3 sequence (P01116 1-188 isoform P01116-2 G12V): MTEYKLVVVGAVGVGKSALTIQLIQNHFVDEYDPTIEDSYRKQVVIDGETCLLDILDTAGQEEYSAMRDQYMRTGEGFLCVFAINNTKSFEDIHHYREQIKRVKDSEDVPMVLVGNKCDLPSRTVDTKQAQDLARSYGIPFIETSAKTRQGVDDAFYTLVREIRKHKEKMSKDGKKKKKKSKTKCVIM
In short: as §1

KRAS WT = target: T4, KRAS WT (Homo sapiens, UniProt P01116); assay: HTRF KRAS-SOS1 interaction assay, wildtype KRAS; details: binned ≤2 μM / >2 μM, read-out: Inhibition of KRAS WT (IC50)
T4 construct: made in house; host or cells: E. coli, e.g. BL21 (DE3)
T4 sequence (P01116 1-188 isoform P01116-2): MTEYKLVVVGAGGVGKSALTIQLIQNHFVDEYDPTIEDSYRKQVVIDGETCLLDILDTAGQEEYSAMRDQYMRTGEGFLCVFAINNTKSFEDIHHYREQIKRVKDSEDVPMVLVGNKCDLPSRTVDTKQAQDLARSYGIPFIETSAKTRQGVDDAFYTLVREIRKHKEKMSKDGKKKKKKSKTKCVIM
In short: as §1

T1 sequence (P01116 1-188 isoform P01116-2 G12S): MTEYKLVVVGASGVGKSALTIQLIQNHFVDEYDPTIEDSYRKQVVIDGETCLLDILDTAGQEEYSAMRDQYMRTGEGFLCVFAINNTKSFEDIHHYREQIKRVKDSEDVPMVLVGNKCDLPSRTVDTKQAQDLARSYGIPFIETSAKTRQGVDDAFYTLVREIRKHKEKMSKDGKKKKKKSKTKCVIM

SMILES | IC50 (KRAS G12S) [µM] | IC50 (KRAS G12D) [µM] | IC50 (KRAS G12V) [µM] | IC50 (KRAS WT) [µM]
N#Cc1c(N)sc2c(F)ccc(-c3c(C(F)(F)F)c4c5c(nc(OC[C@@]67CCCN6CC(=C(F)F)C7)nc5c3F)N([C@H](CC3CCOCC3)c3cccnc3N)CCO4)c12 [Compound 781, 2-amino-4-(4-((R)-1-(2-aminopyridin-3-yl)-2-(tetrahydro-2H-pyran-4-yl)ethyl)-2-(((S)-2-(difluoromethylene)tetrahydro-1H-pyrrolizin-7a(5H)-yl)methoxy)-10-fluoro-8-(trifluoromethyl)-5,6-dihydro-4H-[1,4]oxazepino[5,6,7-de]quinazolin-9-yl)-7-fluorobenzo[b]thiophene-3-carbonitrile] | ≤ 2 | ≤ 2 | ≤ 2 | ≤ 2
C[C@H](c1cccnc1N)N1CCOc2c(Cl)c(-c3ccc(F)c4sc(N)c(C#N)c34)c(F)c3nc(OC[C@@]45CCCN4CC(CP(C)(C)=O)C5)nc1c23 (mixture of isomers) [Compound 839, 2-amino-4-(4-((R)-1-(2-aminopyridin-3-yl)ethyl)-8-chloro-2-(((7aS)-2-((dimethylphosphoryl)methyl)tetrahydro-1H-pyrrolizin-7a(5H)-yl)methoxy)-10-fluoro-5,6-dihydro-4H-[1,4]oxazepino[5,6,7-de]quinazolin-9-yl)-7-fluorobenzo[b]thiophene-3-carbonitrile] | ≤ 2 | ≤ 2 | ≤ 2 | ≤ 2
C[C@H](c1cccnc1F)N1CCOc2c(C(F)(F)F)c(-c3ccc(F)c4sc(N)c(C#N)c34)c(F)c3nc(OC[C@@]45CCCN4C[C@H](F)C5)nc1c23 [Compound 817, 2-amino-7-fluoro-4-(10-fluoro-4-((R)-1-(2-fluoropyridin-3-yl)ethyl)-2-(((2R,7aS)-2-fluorotetrahydro-1H-pyrrolizin-7a(5H)-yl)methoxy)-8-(trifluoromethyl)-5,6-dihydro-4H-[1,4]oxazepino[5,6,7-de]quinazolin-9-yl)benzo[b]thiophene-3-carbonitrile] | ≤ 2 | ≤ 2 | ≤ 2 | ≤ 2
C#CC(F)(F)[C@H](c1cccnc1N)N1CCOc2c(Cl)c(-c3ccc(F)c4sc(N)c(C#N)c34)c(F)c3nc(OC[C@@]45CCCN4C[C@H](F)C5)nc1c23 [Compound 867, 2-amino-4-(4-((S)-1-(2-aminopyridin-3-yl)-2,2-difluorobut-3-yn-1-yl)-8-chloro-10-fluoro-2-(((2R,7aS)-2-fluorotetrahydro-1H-pyrrolizin-7a(5H)-yl)methoxy)-5,6-dihydro-4H-[1,4]oxazepino[5,6,7-de]quinazolin-9-yl)-7-fluorobenzo[b]thiophene-3-carbonitrile] | ≤ 2 | ≤ 2 | ≤ 2 | ≤ 2
N#Cc1c(N)sc2c(F)ccc(-c3c(C(F)(F)F)c4c5c(nc(OC[C@@]67CCCN6C[C@H](F)C7)nc5c3F)N([C@H](CC3CC3)c3cccnc3N)CCO4)c12 (single isomer, unassigned) [Compound 753] | ≤ 2 | ≤ 2 | ≤ 2 | ≤ 2
C[C@H](c1cc(Cl)cnc1N)N1CCOc2c(C(F)(F)F)c(-c3ccc(F)c4sc(N)c(C#N)c34)c(F)c3nc(OCC4(CN5CCC(F)CC5)CC4)nc1c23 [Compound 830, 2-amino-4-(4-((R)-1-(2-amino-5-chloropyridin-3-yl)ethyl)-10-fluoro-2-((1-((4-fluoropiperidin-1-yl)methyl)cyclopropyl)methoxy)-8-(trifluoromethyl)-5,6-dihydro-4H-[1,4]oxazepino[5,6,7-de]quinazolin-9-yl)-7-fluorobenzo[b]thiophene-3-carbonitrile] | ≤ 2 | ≤ 2 | ≤ 2 | ≤ 2
N#Cc1c(N)sc2c(F)ccc(-c3c(C(F)(F)F)c4c5c(nc(OC[C@@]67CCCN6C[C@@]6(CC6(F)F)C7)nc5c3F)N([C@H](CCC3CCOCC3)c3cccnc3N)CCO4)c12 [Compound 650, 2-amino-4-(4-((R)-1-(2-aminopyridin-3-yl)-3-(tetrahydro-2H-pyran-4-yl)propyl)-2-(((1S,7a′S)-2,2-difluorodihydro-1′H,3′H-spiro[cyclopropane-1,2′-pyrrolizin]-7a′(5′H)-yl)methoxy)-10-fluoro-8-(trifluoromethyl)-5,6-dihydro-4H-[1,4]oxazepino[5,6,7-de]quinazolin-9-yl)-7-fluorobenzo[b]thiophene-3-carbonitrile] | ≤ 2 | ≤ 2 | ≤ 2 | ≤ 2
N#Cc1c(N)sc2c(F)ccc(-c3c(C(F)(F)F)c4c5c(nc(OC[C@@]67CCCN6C[C@@]6(CC6(F)F)C7)nc5c3F)N([C@@H](c3cccnc3N)C(F)F)CCO4)c12 (single isomer, unassigned) [Compound 897] | > 2 | > 2 | > 2 | > 2
C[C@H](c1cc(F)cnc1N)N1CCOc2c(C(F)(F)F)c(-c3ccc(F)c4sc(N)c(C#N)c34)c(F)c3nc(OC[C@@]45CCCN4C[C@H](F)C5)nc1c23 (single isomer, unassigned) [Compound 682] | > 2 | > 2 | > 2 | > 2
C=C[C@H](c1cccnc1N)N1CCOc2c(Cl)c(-c3ccc(F)c4sc(N)c(C#N)c34)c(F)c3nc(OC[C@@]45CCCN4C[C@H](F)C5)nc1c23 [Compound 759, 2-amino-4-(4-((R)-1-(2-aminopyridin-3-yl)allyl)-8-chloro-10-fluoro-2-(((2R,7aS)-2-fluorotetrahydro-1H-pyrrolizin-7a(5H)-yl)methoxy)-5,6-dihydro-4H-[1,4]oxazepino[5,6,7-de]quinazolin-9-yl)-7-fluorobenzo[b]thiophene-3-carbonitrile] | ≤ 2 | ≤ 2 | ≤ 2 | ≤ 2
C[C@H](Oc1nc2c3c(nc(-c4ccc(F)c5sc(N)c(C#N)c45)c(F)c3n1)OCCN2[C@H](C)c1cccnc1N)C1CCCN1C (single isomer, unassigned) [Compound 670] | ≤ 2 | ≤ 2 | ≤ 2 | ≤ 2
N#Cc1c(N)sc2c(F)ccc(-c3c(Cl)c4c5c(nc(OC[C@@]67CCCN6C[C@H](F)C7)nc5c3F)N(C(CCCO)c3cccnc3N)CCO4)c12 (mixture of isomers) [Compound 822, 2-amino-4-(4-(1-(2-aminopyridin-3-yl)-4-hydroxybutyl)-8-chloro-10-fluoro-2-(((2R,7aS)-2-fluorotetrahydro-1H-pyrrolizin-7a(5H)-yl)methoxy)-5,6-dihydro-4H-[1,4]oxazepino[5,6,7-de]quinazolin-9-yl)-7-fluorobenzo[b]thiophene-3-carbonitrile] | ≤ 2 | ≤ 2 | ≤ 2 | ≤ 2
N#Cc1c(N)sc2c(F)ccc(-c3c(C(F)(F)F)c4c5c(nc(OC[C@@]67CCCN6C[C@@]6(CC6(F)F)C7)nc5c3F)N([C@H](CCC(F)(F)F)c3cc(F)cnc3N)CCO4)c12 [Compound 617, 2-amino-4-(4-((R)-1-(2-amino-5-fluoropyridin-3-yl)-4,4,4-trifluorobutyl)-2-(((1S,7a′S)-2,2-difluorodihydro-1′H,3′H-spiro[cyclopropane-1,2′-pyrrolizin]-7a′(5′H)-yl)methoxy)-10-fluoro-8-(trifluoromethyl)-5,6-dihydro-4H-[1,4]oxazepino[5,6,7-de]quinazolin-9-yl)-7-fluorobenzo[b]thiophene-3-carbonitrile] | ≤ 2 | ≤ 2 | ≤ 2 | ≤ 2
N#Cc1c(N)sc2c(F)ccc(-c3c(Cl)c4c5c(nc(OC[C@@]67CCCN6C[C@H](F)C7)nc5c3F)N(C(/C=C/C(F)(F)F)c3cccnc3N)CCO4)c12 (mixture of isomers) [Compound 828, 2-amino-4-(4-((E)-1-(2-aminopyridin-3-yl)-4,4,4-trifluorobut-2-en-1-yl)-8-chloro-10-fluoro-2-(((2R,7aS)-2-fluorotetrahydro-1H-pyrrolizin-7a(5H)-yl)methoxy)-5,6-dihydro-4H-[1,4]oxazepino[5,6,7-de]quinazolin-9-yl)-7-fluorobenzo[b]thiophene-3-carbonitrile] | ≤ 2 | ≤ 2 | ≤ 2 | ≤ 2
C=C1CN2CCC[C@@]2(COc2nc3c4c(c(C(F)(F)F)c(-c5ccc(F)c6sc(N)c(C#N)c56)c(F)c4n2)OCCN3[C@H](C)c2cncnc2N)C1 [Compound 680, 2-amino-4-(4-((R)-1-(4-aminopyrimidin-5-yl)ethyl)-10-fluoro-2-(((S)-2-methylenetetrahydro-1H-pyrrolizin-7a(5H)-yl)methoxy)-8-(trifluoromethyl)-5,6-dihydro-4H-[1,4]oxazepino[5,6,7-de]quinazolin-9-yl)-7-fluorobenzo[b]thiophene-3-carbonitrile] | ≤ 2 | ≤ 2 | ≤ 2 | ≤ 2
CCN(CC)CCC[C@H](c1cccnc1N)N1CCOc2c(C(F)(F)F)c(-c3ccc(F)c4sc(NC)c(C#N)c34)c(F)c3nc(OC[C@@]45CCCN4C[C@H](F)C5)nc1c23 (single isomer, unassigned) [Compound 832] | ≤ 2 | ≤ 2 | ≤ 2 | ≤ 2
